Laboratory results as given in patent publication US8246966B2, “Trypanosome microsome system and uses thereof” (priority 2006, dated 2012).

Test system: T. brucei microsomes (TbRM)
Test: Post-translational import of VSG—11786 into T. brucei microsomes, proteinase K protection (Example 2)
Type: biochemical, Trypanosoma brucei
Details: for effect on protein import into TbRM (in words): VSG—11786 substrate
Procedure: FIGS. 2A and 2B show the effect of protein translocation inhibitors on TbRM. FIG. 2A presents the protocol used for import of VSG—117500. In FIG. 2B, SG—117500 mRNA was translated in rabbit reticulocyte lysate with 1.5 equivalents T. brucei cytosol (pretreated with MAL3-101 (0.3 μM), MAL3-51 (1 μM), CJ21,058 (20 μM) or equisetin (50 μM)) for 60 minutes. The reaction mixtures were treated with cycloheximide (50 μg/ml, final concentration) and incubated with TbRM (one equivalent). The mixture was incubated for 60 minutes at 37° C. and digested with proteinase K digestion (30 μg/ml, final concentration) for 60 minutes on ice. Proteins were resolved by SDS-PAGE and detected by phosphorimaging. In lanes 1 and 2, TbRM were pretreated with DMSO. Lane 1 is untreated VSG—117500 with TbRM; lane 2 is VSG—117500 incubated with TbRM and treated with proteinase K. In lanes 3 and 4 TbRM were pretreated with MAL3-101. Lane 3 is VSG—117500 incubated with TbRM; lane 4 is VSG—117500 incubated with TbRM and then treated with proteinase K. In lanes 5 and 6 TbRM pretreated with MAL3-51. Lane 5 is VSG—117500 incubated with TbRM; lane 6 is VSG—117500 incubated with TbRM and then treated with proteinase K. In lanes 7 and 8 TbRM were pretreated with CJ-21,058). Lane 7 is VSG—117500 incubated with TbRM; lane 8 is VSG—117500 incubated with ThRM and then treated with proteinase K. In lanes 9 and 10 TbRM were pretreated with equisetin). Lane 9 is VSG—117500 incubated with TbRM; lane 10 is VSG—117500 incubated with TbRM and then treated with proteinase K.
Protein import into TbRM. Two micrograms (μg) of RNA encoding a truncated substrate (e.g., VSG—11786) was translated in […] of a reaction mixture containing 20 μl rabbit reticulocyte lysate, 60 μM amino acid mixture (-Met, -Cys), and 2.4 μCi [^35S]Promix. The reaction was incubated at 37° C. for 15 minutes. Cycloheximide (50 μg/ml, final concentration) was used to stop further translation, and the mixture was divided into two portions. T. brucei microsomes (ThRM) (1 equivalent) was added to one aliquot, and to the other portion an equal volume of RM buffer was added. The reactions were incubated at 37° C. for 45 minutes for protein import into TbRM to take place post-translationally.
Each reaction mixture was divided into three (each 10 μl) and treated with one of the following on ice for one hour: (I) RM buffer; (ii) 30 μg/ml protease K; (iii) nonidet P-40 (NP-40) (2%, final concentration) followed by protease K (30 μg/ml, final concentration). PMSF (20 mM final concentration) was added to stop protease K digestion. Samples were precipitated with an equal volume of cold (NH4)2SO4 sulphate (saturated) and resolved by sodium dodecyl sulfate-polyacrylamide gel electrophoresis (SDS-PAGE) (4% total acrylamide, 3% cross linker in tricene-HCl system) (Fekkes et al., 1998, Mol Microbiol; 29(5):1179-90). The gels were dried, and radioactive polypeptides detected with a phosphorimager (Molecular Imager FX, (BioRad). Data bands were quantitated with QuantityOne software (BioRad), and graphs were plotted with DeltaGraph (Red Rock software).
A small molecule inhibitor of Hsp70-Hsp40 interaction blocks protein translocation into TbRM. Post-translational ER protein translocation in Saccharomyces cerevisiae and E. coli requires cytosolic chaperones. In the yeast S. cerevisiae, for example, Ssa1p (Hsp70) and co-chaperone Ydj1p (Hsp40) (Becker et al., 1996, Mol Cell Biol; 16(8):4378-86; Ngosuwan et al., 2003, J Biol Chem; 278(9):7034-42; and McClellan et al., 1998, Mol Biol Cell; 9(12): 3533-45) as well as Kar2p/BiP stimulate post-translational protein import (Lyman and Schekman, 1995, J Cell Biol; 131(5):1163-71; Panzner et al., 1995, Cell; 81(4):561-70; and Holkeri et al., 1998, J Cell Sci; 111:749-757). […]

Compound: C/C=C/C1C(C)=CC2CC(C)CCC2C1(C)/C(O)=C1/C(=O)C(CO)N(C)C1=O (stereo not drawn) [CJ-21,058]
- inhibition of translocation of VSG—11786 into TbRM (CJ-21,058 20 μM): 95%
- effect on protein import into TbRM (in words): inhibited import

Compound: CCCCCCN(C(=O)CCCCCN1C(=O)NC(c2ccc(-c3ccccc3)cc2)C(C(=O)OCc2ccccc2)=C1C)C(C(=O)NCCCC)c1ccc(OCC(=O)OC)c(C(=O)OC)c1 (stereo not drawn) [MAL3-101]
- VSG—11786 translocated into TbRM (protection from proteinase K digestion) (MAL3-101 present (0.3 μM in FIG. 2B legend), DMSO control 80%): 13%
- effect on protein import into TbRM (in words): blocked import

Compound: C/C=C/[C@@H]1C=C[C@@H]2C[C@H](C)CC[C@H]2[C@]1(C)/C(O)=C1/C(=O)[C@H](CO)N(C)C1=O [equisetin]
- effect on protein import into TbRM (in words): inhibited import
- inhibition of translocation of VSG—11786 into TbRM (equisetin 25 μM): 95%
